Source: ChEMBL document CHEMBL4387772, “Design, synthesis and biological evaluation of hypolipidemic compounds based on BRD4 inhibitor RVX-208” (Bioorg Med Chem Lett, 2019)

How the values were obtained:
Rattus norvegicus [1] = assay: Antihyperlipidemic activity in Sprague-Dawley rat assessed as decrease in triglyceride level at 30 mg/kg, po administered twice daily for 1 week measured 2 hrs post-last dose by GPO-PAP analysis relative to control; type: functional; design: scale not given: the % may be the effect or the level left
HepG2 = assay: Up regulation of ApoA1 mRNA expression in human HepG2 cells at 100 uM by RT-PCR analysis relative to control; type: functional
Rattus norvegicus [2] = assay: Antihyperlipidemic activity in Sprague-Dawley rat assessed as increase in HDL-C level at 30 mg/kg, po administered twice daily for 1 week measured 2 hrs post-last dose by HPLC analysis relative to control; type: functional
[3] = target: Bromodomain-containing protein 4 (Homo sapiens, UniProt O60885); assay: Inhibition of BRD4 bromodomain 2 (unknown origin) incubated for 30 mins by ELISA
Rattus norvegicus [4] = assay: Antihyperlipidemic activity in po dosed Sprague-Dawley rat assessed as decrease in triglyceride level administered twice daily for 1 week measured 2 hrs post-last dose by GPO-PAP analysis relative to control; type: functional; design: scale not given: the % may be the effect or the level left
Rattus norvegicus [5] = assay: Antihyperlipidemic activity in po dosed Sprague-Dawley rat assessed as increase in HDL-C level administered twice daily for 1 week measured 2 hrs post-last dose by HPLC analysis relative to control; type: functional

Row | IC50 [3] | SMILES | Activity (Rattus norvegicus [1]) | Activity (HepG2) | Activity (Rattus norvegicus [2]) | Activity (Rattus norvegicus [4]) | Activity (Rattus norvegicus [5])
1 | > 100 nM | COc1cc(OC)c2c(=O)[nH]c(-c3cc(OC)c(OC(=O)CC(=O)OC(C)(C)C(=O)O)c(OC)c3)nc2c1 | 50.36% | 37.34% | 21.58% |  | 
2 | 20.9 nM | COc1cc(OC)c2c(=O)[nH]c(-c3cc(OC)c(OC(=O)C(C)(C)Br)c(OC)c3)nc2c1 | 41.63% | 44.82% | 32.74% |  | 
3 | 39.6 nM | COc1cc(OC)c2c(=O)[nH]c(-c3cc(C)c(OC(=O)C(C)(C)Oc4ccc(Cl)cc4)c(C)c3)nc2c1 | 34.85% | 38.09% | 22.5% |  | 
4 | 53.8 nM | COc1cc(OC)c2c(=O)[nH]c(-c3cc(C)c(OC(=O)C(C)(C)Br)c(C)c3)nc2c1 | 36.21% | 34.85% | 19.33% |  | 
5 | > 100 nM | COc1cc(OC)c2c(=O)[nH]c(-c3cc(C)c(OC(=O)CC(=O)OC(C)(C)C(=O)O)c(C)c3)nc2c1 | 48.59% | 21.67% | 16.46% |  | 
6 | 71 nM | COc1cc(OC)c2c(=O)[nH]c(-c3ccc(C(=O)OCCO)cc3)nc2c1 | 11.94% | 25.3% | 16.51% |  | 
7 | 9.7 nM | COc1cc(OC)c2c(=O)[nH]c(-c3cc(OC)c(OC(=O)C(C)(C)Oc4ccc(Cl)cc4)c(OC)c3)nc2c1 | 37.34% | 42.65% | 29.39% |  | 
8 | 27.5 nM | COc1cc(OC)c2c(=O)[nH]c(-c3cc(OC)c(OCCO)c(OC)c3)nc2c1 | 5.07% | 32.77% | 20.61% |  | 
9 |  | COc1cc(OC)c2c(=O)[nH]c(-c3cc(C)c(OCCO)c(C)c3)nc2c1 [APABETALONE] |  | 38.91% |  | 3.13% | 23.84%
10 |  | CCOC(=O)C(C)(C)Oc1ccc(Cl)cc1 [CLOFIBRATE] |  |  |  | 41.35% | 5.92%
11 |  | Cc1ccc(C)c(OCCCC(C)(C)C(=O)O)c1 [GEMFIBROZIL] |  |  |  | 39.66% | 7.03%
